Test results as given in PMC4019989 (Clinical cancer research : an official journal of the …, 2009).

Experiments:
[1] = preclinical studies; cited from earlier work
[2] = system: patients with relapsed or refractory hematologic malignancies; experiment: Phase 1 dose escalation: adverse events, DLT, MTD; type: in vivo
[3] = All patients (N = 29), all dose cohorts

CC(C)C[C@H](NC(=O)[C@H](CCc1ccccc1)NC(=O)CN1CCOCC1)C(=O)N[C@@H](Cc1ccccc1)C(=O)N[C@@H](CC(C)C)C(=O)[C@@]1(C)CO1 [carfilzomib]
Time for serum concentrations to approach the limit of assay detection [1]: ≤ 1 h
Grade 3 and 4 adverse events: ALT increased, Grades 3-4 ([2]; All patients (N = 29), Table 4): 1 (3) n (%)
Grade 3 and 4 adverse events: AST increased, Grade 3 ([2]; All patients (N = 29), Table 4): 1 (3) n (%)
Grade 3 and 4 adverse events: AST increased, Grade 4 ([2]; All patients (N = 29), Table 4): 0 (0) n (%)
Grade 3 and 4 adverse events: AST increased, Grades 3-4 ([2]; All patients (N = 29), Table 4): 1 (3) n (%)
Grade 3 and 4 adverse events: Abdominal pain, Grade 3 ([2]; All patients (N = 29), Table 4): 1 (3) n (%)
Grade 3 and 4 adverse events: Abdominal pain, Grade 4 ([2]; All patients (N = 29), Table 4): 0 (0) n (%)
Grade 3 and 4 adverse events: Abdominal pain, Grades 3-4 ([2]; All patients (N = 29), Table 4): 1 (3) n (%)
Grade 3 and 4 adverse events: Anemia, Grades 3-4 ([2]; All patients (N = 29), Table 4): 1 (3) n (%)
Grade 3 and 4 adverse events: Any, Grade 3 ([2]; All patients (N = 29), Table 4): 11 (38) n (%)
Grade 3 and 4 adverse events: Any, Grades 3-4 ([2]; All patients (N = 29), Table 4): 14 (48) n (%)
Grade 3 and 4 adverse events: Chills, Grade 3 ([2]; All patients (N = 29), Table 4): 1 (3) n (%)
Grade 3 and 4 adverse events: Chills, Grade 4 ([2]; All patients (N = 29), Table 4): 0 (0) n (%)
Grade 3 and 4 adverse events: Chills, Grades 3-4 ([2]; All patients (N = 29), Table 4): 1 (3) n (%)
Grade 3 and 4 adverse events: Disease progression, Grade 3 ([2]; All patients (N = 29), Table 4): 1 (3) n (%)
Grade 3 and 4 adverse events: Disease progression, Grade 4 ([2]; All patients (N = 29), Table 4): 0 (0) n (%)
Grade 3 and 4 adverse events: Disease progression, Grades 3-4 ([2]; All patients (N = 29), Table 4): 1 (3) n (%)
Grade 3 and 4 adverse events: Hyperglycemia, Grade 3 ([2]; All patients (N = 29), Table 4): 1 (3) n (%)
Grade 3 and 4 adverse events: Hyperglycemia, Grade 4 ([2]; All patients (N = 29), Table 4): 0 (0) n (%)
Grade 3 and 4 adverse events: Hyperglycemia, Grades 3-4 ([2]; All patients (N = 29), Table 4): 1 (3) n (%)
Grade 3 and 4 adverse events: Neutropenia, Grade 3 ([2]; All patients (N = 29), Table 4): 1 (3) n (%)
Grade 3 and 4 adverse events: Neutropenia, Grade 4 ([2]; All patients (N = 29), Table 4): 0 (0) n (%)
Grade 3 and 4 adverse events: Neutropenia, Grades 3-4 ([2]; All patients (N = 29), Table 4): 1 (3) n (%)
Grade 3 and 4 adverse events: Pain, Grade 3 ([2]; All patients (N = 29), Table 4): 1 (3) n (%)
Grade 3 and 4 adverse events: Pain, Grade 4 ([2]; All patients (N = 29), Table 4): 0 (0) n (%)
Grade 3 and 4 adverse events: Pain, Grades 3-4 ([2]; All patients (N = 29), Table 4): 1 (3) n (%)
Grade 3 and 4 adverse events: Skin infection, Grade 3 ([2]; All patients (N = 29), Table 4): 1 (3) n (%)
Grade 3 and 4 adverse events: Skin infection, Grade 4 ([2]; All patients (N = 29), Table 4): 0 (0) n (%)
Grade 3 and 4 adverse events: Skin infection, Grades 3-4 ([2]; All patients (N = 29), Table 4): 1 (3) n (%)
Grade 3 and 4 adverse events: Syncope, Grade 3 ([2]; All patients (N = 29), Table 4): 1 (3) n (%)
Grade 3 and 4 adverse events: Syncope, Grade 4 ([2]; All patients (N = 29), Table 4): 0 (0) n (%)
Grade 3 and 4 adverse events: Syncope, Grades 3-4 ([2]; All patients (N = 29), Table 4): 1 (3) n (%)
Grade 3 and 4 adverse events: Thrombocytopenia, Grade 3 ([2]; All patients (N = 29), Table 4): 0 (0) n (%)
Adverse event Any, All Grades [2, 3]: 29 (100) n (%)
Adverse event Any, Grade 1 [2, 3]: 4 (14) n (%)
Adverse event Any, Grade 2 [2, 3]: 11 (38) n (%)
Adverse event Any, Grade 3 [2, 3]: 11 (38) n (%)
Adverse event Any, Grade 4 [2, 3]: 3 (10) n (%)
Adverse event Constipation, All Grades [2, 3]: 6 (21) n (%)
Adverse event Constipation, Grade 1 [2, 3]: 5 (17) n (%)
Adverse event Constipation, Grade 2 [2, 3]: 1 (3) n (%)
Adverse event Constipation, Grade 3 [2, 3]: 0 (0) n (%)
Adverse event Constipation, Grade 4 [2, 3]: 0 (0) n (%)
Adverse event Cough, All Grades [2, 3]: 8 (28) n (%)
Adverse event Cough, Grade 1 [2, 3]: 8 (28) n (%)
Adverse event Cough, Grade 2 [2, 3]: 0 (0) n (%)
Adverse event Cough, Grade 3 [2, 3]: 0 (0) n (%)
Adverse event Cough, Grade 4 [2, 3]: 0 (0) n (%)
Adverse event Diarrhea, All Grades [2, 3]: 10 (35) n (%)
Adverse event Diarrhea, Grade 1 [2, 3]: 7 (24) n (%)
Adverse event Diarrhea, Grade 2 [2, 3]: 3 (10) n (%)
Adverse event Diarrhea, Grade 3 [2, 3]: 0 (0) n (%)
Adverse event Diarrhea, Grade 4 [2, 3]: 0 (0) n (%)
Adverse event Pyrexia, Grade 1 [2, 3]: 5 (17) n (%)
Adverse event Pyrexia, Grade 2 [2, 3]: 3 (10) n (%)
Adverse event Pyrexia, Grade 3 [2, 3]: 0 (0) n (%)
Adverse event Pyrexia, Grade 4 [2, 3]: 0 (0) n (%)
Patients who discontinued study treatment due to adverse events ([2]; Four of the 29 patients): 14%
Patients with grade 2 anemia ([2]; across all cohorts): three
Incidence of anemia ([2]; across all cohorts, five patients, doses 1.2 to 15 mg/m^2): 17%
Adverse event Dyspnea, All Grades ([2]; human, in vivo): 8 (28) n (%)
Adverse event Dyspnea, Grade 1 ([2]; human, in vivo): 6 (21) n (%)
Adverse event Dyspnea, Grade 2 ([2]; human, in vivo): 0 (0) n (%)
Adverse event Dyspnea, Grade 3 ([2]; human, in vivo): 1 (3) n (%)
Adverse event Dyspnea, Grade 4 ([2]; human, in vivo): 1 (3) n (%)
Adverse event Exertional dyspnea, All Grades ([2]; human, in vivo): 6 (21) n (%)
Adverse event Exertional dyspnea, Grade 1 ([2]; human, in vivo): 6 (21) n (%)
Adverse event Exertional dyspnea, Grade 2 ([2]; human, in vivo): 0 (0) n (%)
Adverse event Exertional dyspnea, Grade 3 ([2]; human, in vivo): 0 (0) n (%)
Adverse event Exertional dyspnea, Grade 4 ([2]; human, in vivo): 0 (0) n (%)
Adverse event Fatigue, All Grades ([2]; human, in vivo): 14 (48) n (%)
Adverse event Fatigue, Grade 1 ([2]; human, in vivo): 10 (35) n (%)
Adverse event Fatigue, Grade 2 ([2]; human, in vivo): 3 (10) n (%)
Adverse event Fatigue, Grade 3 ([2]; human, in vivo): 1 (3) n (%)
Adverse event Fatigue, Grade 4 ([2]; human, in vivo): 0 (0) n (%)
Adverse event Headache, All Grades ([2]; human, in vivo): 7 (24) n (%)
Adverse event Headache, Grade 1 ([2]; human, in vivo): 7 (24) n (%)
Adverse event Headache, Grade 2 ([2]; human, in vivo): 0 (0) n (%)
Adverse event Headache, Grade 3 ([2]; human, in vivo): 0 (0) n (%)
Adverse event Headache, Grade 4 ([2]; human, in vivo): 0 (0) n (%)
Adverse event Hypoesthesia, All Grades ([2]; human, in vivo): 8 (28) n (%)
Adverse event Hypoesthesia, Grade 1 ([2]; human, in vivo): 5 (17) n (%)
Adverse event Hypoesthesia, Grade 2 ([2]; human, in vivo): 3 (10) n (%)
Adverse event Hypoesthesia, Grade 3 ([2]; human, in vivo): 0 (0) n (%)
Adverse event Hypoesthesia, Grade 4 ([2]; human, in vivo): 0 (0) n (%)
Adverse event Nausea, All Grades ([2]; human, in vivo): 14 (48) n (%)
Adverse event Nausea, Grade 1 ([2]; human, in vivo): 11 (38) n (%)
Adverse event Nausea, Grade 2 ([2]; human, in vivo): 3 (10) n (%)
Adverse event Nausea, Grade 3 ([2]; human, in vivo): 0 (0) n (%)
Adverse event Nausea, Grade 4 ([2]; human, in vivo): 0 (0) n (%)
Adverse event Paresthesia, All Grades ([2]; human, in vivo): 6 (21) n (%)
Adverse event Paresthesia, Grade 1 ([2]; human, in vivo): 4 (14) n (%)
Adverse event Paresthesia, Grade 2 ([2]; human, in vivo): 2 (7) n (%)
Adverse event Paresthesia, Grade 3 ([2]; human, in vivo): 0 (0) n (%)
Adverse event Paresthesia, Grade 4 ([2]; human, in vivo): 0 (0) n (%)
Adverse event Peripheral edema, All Grades ([2]; human, in vivo): 7 (24) n (%)
Adverse event Peripheral edema, Grade 1 ([2]; human, in vivo): 7 (24) n (%)
Adverse event Peripheral edema, Grade 2 ([2]; human, in vivo): 0 (0) n (%)
Adverse event Peripheral edema, Grade 3 ([2]; human, in vivo): 0 (0) n (%)
Adverse event Peripheral edema, Grade 4 ([2]; human, in vivo): 0 (0) n (%)
Adverse event Pyrexia, All Grades ([2]; human, in vivo): 8 (28) n (%)
Grade 3 and 4 adverse events: ALT increased, Grade 3 ([2]; human, in vivo): 1 (3) n (%)
Grade 3 and 4 adverse events: ALT increased, Grade 4 ([2]; human, in vivo): 0 (0) n (%)
Grade 3 and 4 adverse events: Acute bronchitis, Grade 3 ([2]; human, in vivo): 1 (3) n (%)
Grade 3 and 4 adverse events: Acute bronchitis, Grade 4 ([2]; human, in vivo): 0 (0) n (%)
Grade 3 and 4 adverse events: Acute bronchitis, Grades 3-4 ([2]; human, in vivo): 1 (3) n (%)
Grade 3 and 4 adverse events: Alkaline phosphatase increased, Grade 3 ([2]; human, in vivo): 1 (3) n (%)
Grade 3 and 4 adverse events: Alkaline phosphatase increased, Grade 4 ([2]; human, in vivo): 0 (0) n (%)
Grade 3 and 4 adverse events: Alkaline phosphatase increased, Grades 3-4 ([2]; human, in vivo): 1 (3) n (%)
Grade 3 and 4 adverse events: Anemia, Grade 3 ([2]; human, in vivo): 1 (3) n (%)
Grade 3 and 4 adverse events: Anemia, Grade 4 ([2]; human, in vivo): 0 (0) n (%)
Grade 3 and 4 adverse events: Dyspnea, Grade 3 ([2]; human, in vivo): 1 (3) n (%)
Grade 3 and 4 adverse events: Dyspnea, Grade 4 ([2]; human, in vivo): 1 (3) n (%)
Grade 3 and 4 adverse events: Fatigue, Grade 3 ([2]; human, in vivo): 1 (3) n (%)
Grade 3 and 4 adverse events: Fatigue, Grade 4 ([2]; human, in vivo): 0 (0) n (%)
Grade 3 and 4 adverse events: Fatigue, Grades 3-4 ([2]; human, in vivo): 1 (3) n (%)
Grade 3 and 4 adverse events: Febrile neutropenia, Grade 3 ([2]; human, in vivo): 1 (3) n (%)
Grade 3 and 4 adverse events: Febrile neutropenia, Grade 4 ([2]; human, in vivo): 0 (0) n (%)
Grade 3 and 4 adverse events: Febrile neutropenia, Grades 3-4 ([2]; human, in vivo): 1 (3) n (%)
Grade 3 and 4 adverse events: Gastrointestinal hemorrhage, Grade 3 ([2]; human, in vivo): 1 (3) n (%)
Grade 3 and 4 adverse events: Gastrointestinal hemorrhage, Grade 4 ([2]; human, in vivo): 0 (0) n (%)
Grade 3 and 4 adverse events: Gastrointestinal hemorrhage, Grades 3-4 ([2]; human, in vivo): 1 (3) n (%)
Grade 3 and 4 adverse events: Hemoglobin decreased, Grade 3 ([2]; human, in vivo): 1 (3) n (%)
Grade 3 and 4 adverse events: Hemoglobin decreased, Grade 4 ([2]; human, in vivo): 0 (0) n (%)
Grade 3 and 4 adverse events: Hemoglobin decreased, Grades 3-4 ([2]; human, in vivo): 1 (3) n (%)
maximum tolerated dose (MTD) ([2]; i.v. push on 5 consecutive days within 14-day cycles): 15 mg/m^2
DLTs in the initial seven dose cohorts ([2]; in vivo): No DLTs were observed
